{
  "source": "patent US20080069785A1",
  "about": "“PEST-CONTROL COMPOSITIONS, AND METHODS AND PRODUCTS UTILIZING SAME” (priority 2004, published 2008)",
  "key": {"[1]": {"system": "adult German cockroaches, Blattella germanica", "assay": "Direct application toxicity test, comparison of insecticides including BioUD 10 (Table 23)", "assay_type": "in vivo", "details": "10 μL; adult female (F); individual cockroaches", "description": "Ten μL of BioUD™10, pure Undecanone, or Raid® were separately applied to the backs (thorax and wings) of adult German cockroaches, Blattella germanica. Insects were separately placed into FLUON®-treated diet cups (Vol.=30 mL, lower diam.=3 cm, height=4 cm) to prevent escape of treated specimens."}, "[2]": {"system": "Eastern subterranean termite, Reticulitermes flavipes", "assay": "Termite direct application test (Example 20)", "assay_type": "in vivo", "details": "1 uL onto the back or thorax", "description": "In this test, in addition to water as a negative control, a positive control, in the form of the commercially available pesticide Raid® in also included. The method in this test simply involved pippetting 1 uL of the formulation onto the back or thorax of the Eastern subterranean termite, Reticulitermes flavipes, and recording the time to death. This test was performed on Mar. 13, 2007. The formulations used in the test were: (a) Raid®, a commercially available pesticide, (b) Undecanone, (c) BioUD™10, (d) BioUD™5, (e) Soy Methyl Ester (SME), and (f) water as a negative control."}},
  "note": "“And” between values parts separate entries of the source, which are not always exact repeats. Equal values may be shown once.",
  "data": [
    {"smiles": "CCCCCCCCCC(C)=O", "note": "[Undecanone, 2-Undecanone]", "values": [
      {"measurement": "Time-to-death", "setting": "[1]", "value": "47 s and 46 s and 1200 s and 57 s"},
      {"measurement": "Time-to-death (sec), mean", "setting": "[2]", "value": 171.5, "unit": "s"},
      {"measurement": "Time-to-death", "setting": "[2]; individual termite", "value": "157 s and 389 s and 68 s and 174 s and 146 s"}
    ]}
  ]
}
